Laboratory results taken from US4313931A, “Fused dibenzo imidazolo compounds, compositions and use” (Boehringer Ingelheim KG, priority 1980, dated 1982).
Where a name gives a salt, the structure may show the parent alone.

Assays:
[1] = tested on: sensitized rats (passive cutaneous anaphylaxis); assay: passive cutaneous anaphylaxis (PCA) in sensitized rats; assay type: in vivo; conditions: po; rat p.o.
in vivo = conditions: po, mouse p.o.
[2] = tested on: sensitized rats (passive lung anaphylaxis); assay: animal or person; conditions: Rattus norvegicus, iv, read-out: PLA ED50
Experimental: (a) Tests in sensitized rats were performed after passive sensitization of the animals by IgE-antibodies and subsequent antigen challenge. In this manner a passive cutaneous anaphylaxis (GOOSE et al. (1969): Immunology 16, 749) (PCA) and a passive lung anaphylaxis ([…] et al. (1975): Br. J. Pharmac. 55, 57) (PLA, experimental asthma) could be provoked.

SMILES	ED50 [1]	LD50 (in vivo)	ED50 [2]
Cl.NC1=NCC2c3ccccc3Cc3cc(Cl)ccc3N12 (centres unmarked) [Example 1(a), 3-amino-7-chloro-9,13b-dihydro-1H-dibenzo[c,f]-imidazo[1,5-a]azepine hydrochloride]	0.96 mg/kg	–	–
Br.NC1=NCC2c3ccccc3Oc3ccccc3N12 (centres unmarked) [Example 1(c), 3-amino-1,13b-dihydro-dibenzo[b,f]imidazo[1,5-d][1,4]-oxazepine hydrobromide]	1.1 mg/kg	340 mg/kg	–
NC1=NCC2c3cc(Cl)ccc3Oc3ccccc3N12 (centres unmarked) [Example 1(d), 3-amino-12-chloro-1,13b-dihydro[b,f]imidazo[1,5-d][1,4]oxazepine hydrobromide]	2.5 mg/kg	–	–
Br.NC1=NCC2c3ccccc3Sc3ccccc3N12 (centres unmarked) [Example 1(i), 3-amino-1,13b-dihydro-dibenzo[b,f]imidazo[1,5-d][1,4]-thiazepine hydrobromide]	3.8 mg/kg	–	–
Br.NC1=NCC2c3cc(Cl)ccc3Sc3ccccc3N12 (centres unmarked) [Example 1(l), 3-amino-12-chloro-1,13b-dihydro-dibenzo[b,f]imidazo[1,5-d][1,4]thiazepine hydrobromide]	5.4 mg/kg	–	–
NC1=NCC2c3ccccc3Cc3ccccc3N12 (centres unmarked) [Example 1, 3-Amino-9,13b-dihydro-1H-dibenzo[c,f]imidazo[1,5-a]azepine hydrobromide]	6 mg/kg	–	0.052 mg/kg
